Source: patent US7803837B2, “4-oxo-4,5-dihydro-furan-2-carboxylic acid derivatives and methods of treatment of metabolic-related disorders thereof” (Arena Pharmaceuticals, Inc., priority 2003, dated 2010)

System: free fatty acid production
Experiment: Inhibition of free fatty-acid production, in vivo, in catheterized male rats (NEFA assay on serum)
Design: species or system Sprague-Daly Rats
Settings: food deprived catheterized rats, IP administration at various concentrations, FIG. 2A/2B
Method: Inhibition of Free Fatty-Acid Production, In Vivo, in Catheterized Male Sprague-Daly Rats
Non-esterified free-fatty acid (NEFA) assays were done on serum derived from live, freely moving rats. Jugular vein catheters were surgically implanted into the jugular veins and the animals were allowed to recover at least 48 hr post surgery. Food was removed from the animals approximately 16 hours prior to the assay. A draw of ˜200 μl blood was pulled from the catheter and represents the baseline NEFA serum sample. Drug was administered intra-peritoneally (IP) at various concentrations to individual rats and then ˜200 μl blood draws were pulled from the catheter at the indicated time points for further NEFA analysis. NEFA assays were performed according to the manufacturer's specifications (Wako Chemicals, USA; NEFA C) and free fatty acid concentrations were determined via regression analysis of a known standard curve (range of known free fatty acids). Data was analyzed using Excel and PrismGraph.

O=C(O)c1cccnc1 [nicotinic acid, pyridine-3-carboxylic acid]
inhibition of plasma free fatty acid (NEFA): inhibiting plasma free fatty acid concentrations

CC1(C2=CCCCC2)OC(C(=O)O)=CC1=O (racemic) [Compound 1, 5-Cyclohex-1-enyl-5-methyl-4-oxo-4,5-dihydro-furan-2-carboxylic acid]
inhibition of plasma free fatty acid (NEFA): able to inhibit free fatty acid production to the same extent, at similar doses and within the same time-frame as compared to nicotinic acid
